Laboratory results taken from patent US20130202649A1, “ACTIVATION OF INNATE IMMUNITY FOR NUCLEAR REPROGRAMMING OF SOMATIC CELLS” (The Board of Trustees of the Leland Stanford Junior …, priority 2012, published 2013).

What was measured:
HDAC = HDAC expression (cDNA profiling, Western); format: cell-based, human
From the text: Histone acetylation status influences the folding and functional state of the chromatin and modulates the accessibility of DNA to the transcriptional machinery for gene expression. Histone de-acetylation is generally associated with a closed chromatin state, and inhibitors of histone de-acetylase (HDAC) such as valproic acid are employed to enhance nuclear reprogramming. […] The downregulation of HDAC1 expression by poly I:C was confirmed by Western analysis (FIG. 17).
Gene Expression and Microarray Analyses RNA was isolated with the RNeasy kit. First-strand cDNA was primed with oligo(dT) primers and qPCR was performed with primer sets from Applied Biosystems. RNA probes were prepared and hybridized to Illumina HumanHT-12 v4 Expression BeadChip microarrays.
Western Blotting Proteins were extracted from BJ fibroblasts by solubilizing the cells in RIPA buffer containing 1× protease inhibitor cocktail. 25 μg of total protein was loaded and resolved on SDSpolyacrylamide gels, transferred to PVDF membranes and probed with the following primary antibodies: anti-HP1α and anti-HDAC (Cell Signaling), and β-actin (Sigma, A5441). Immunoblots were developed with enhanced chemiluminescence reagents (Amersham).

[1] = tested on: human foreskin fibroblasts (BJ); test: Transdifferentiation of human fibroblasts to endothelial cells (FACS); format: cell-based; settings: Poly I:C 30 ng/ml
Description: FIG. 21: Direct reprogramming of human fibroblasts to functional endothelial cells via innate immunity activation and microenvironmental cues: (A) Protocol for direct reprogramming of human BJ fibroblasts to endothelial cells. The figure describes the time course and sequential treatments of different medias: Human fibroblasts were treated with Poly I:C (30 ng/ml) for 7 days in differentiation medium I containing DMEM/FBS and 7.5% knockout serum replacement (KSR). Following 7 days, the medium was changed to differentiation medium II containing DMEM/FBS and 10% KSR containing 20 ng/ml BMP4, 50 ng/ml VEGF and 20 ng/ml bFGF. After another 7 days, the medium was replaced with endothelial medium (EGM2) containing 50 ng/ml VEGF, 20 ng/ml bFGF and 0.1 mM 8-Br-cAMP for another 14 days. The medium was changed every 2-3 days. […] (B) Fluorescent activated cell sorting (FACs) plot of data obtained using CD31+ antibody to quantitate iECs. […]
Innate immunity (TLR3 signaling) enables efficient transdifferentiation of fibroblasts to ECs: To determine whether TLR3 signaling was necessary for efficient transdifferentiation of human fibroblasts, we assessed direct differentiation in BJ fibroblasts previously treated with scrambled shRNA or shRNA to knockdown (KD) the expression of TLR3. […]

Substance: Polyinosinicpolycytidylic acid [Poly I:C]
- expression of a suite of HDAC genes (HDAC; CPP treated human fibroblasts): downregulated
- HDAC 1 protein expression (immunoblot) (HDAC; day 2 to day 6): early (day 2) and sustained (to day 6) inhibition
- transdifferentiation of fibroblasts to iECs [1]: significantly enhanced
- cells expressed CD31 ([1]; 28 days of differentiation, FACS, relative to the vehicle control): Approximately 2%
